Marks after values point to notes of the source that are not given here.
Key:
DA uptake = conditions: read-out: DA Uptake IC50; mean ± SEM; cited from earlier work
Caco-2 monolayers [1] = test: Bidirectional transport and verapamil inhibition across Caco-2 monolayers; format: in vitro ADME; conditions: 0.1 mM, absence of verapamil, mean ± SD (n = 3)
MDCK-MDR1 monolayers [2] = test: Bidirectional transport and verapamil inhibition across MDCK-MDR1 monolayers; format: in vitro ADME; conditions: MDCK-MDR1
[3] = system: extracellular levels of DA in the nucleus accumbens (NAc); conditions: cited from earlier work
Caco-2 monolayers [4] = conditions: Caco-2 monolayer characterization; cited from earlier work
MDCK-MDR1 monolayers [5] = conditions: MDCK-MDR1 monolayer characterization; cited from earlier work
[6] = 0.1 mM, absence of verapamil, mean ± SD (n = 3)

For CN1[C@@H]2CC[C@H]1C[C@@H](OC(c1ccccc1)c1ccccc1)C2 [BZT, benztropine, reference compound], the IC50 (DA uptake) is listed as 403 ± 115 nM.
For C[N+]1(C)C2CCC1CC(OC(c1ccc(F)cc1)c1ccc(F)cc1)C2 (stereo not drawn) [JHW 025, N-(dimethyl)-3α-[(bis-4′-fluorophenyl)methoxy]tropane, reference compound], the “Papp A-B” value (Caco-2 monolayers [1]) was <0.34 ^a × 10^−6 cm/s, the “Papp B-A” value (Caco-2 monolayers [1]) was 1.8 ± 0.25 × 10^−6 cm/s and the “Efflux Ratio” value (MDCK-MDR1 monolayers [2]; 0.1 mM, Papp(B-A)/Papp(A-B)) was 1.5. The “Papp A-B” value (MDCK-MDR1 monolayers [2]; [6]) was 5.00 ± 0.31 × 10^−6 cm/s, the “Papp B-A” value (MDCK-MDR1 monolayers [2]; [6]) was 7.39 ± 1.17 × 10^−6 cm/s and the “Enhancement ratio of A-B transport by verapamil” value (MDCK-MDR1 monolayers [2]; verapamil 200 μM) was 1.2.
In the case of COC(=O)[C@H]1[C@@H](OC(=O)c2ccccc2)C[C@@H]2CC[C@H]1N2C [cocaine], the DA increase ([3]; 3 mg/kg i.v., similar microdialysis technique, ref Baumann et al.[41]) is given as “six-fold” and the DA elevation ([3]; 5 mg/kg i.v., identical stereotaxic coordinates) is given as 10 fold.
In the case of CC(C)NCC(O)COc1cccc2ccccc12 (centres unmarked) [propranolol], the “Papp of marker compounds” value (Caco-2 monolayers [4]) is listed as 13.34 ×10⁻⁶ cm/s and the “Papp of marker compounds” value (MDCK-MDR1 monolayers [5]) is listed as 24.33 ×10⁻⁶ cm/s.
